Each structure is given as a SMILES string. pKd: −log10 of the molar value. In brackets after ≈: the same amount, converted by molar mass. Activity calls are given as the source filed them. No cut-off for these calls is given here.

The nature of experiment [1]: Binding affinity to Clostridium difficile [5'-32P]guaA riboswitch by polyacrylamide gel electrophoresis method. Also on record: species or system Clostridioides difficile.
Experiment [2] relates to Clostridioides difficile. Description: Antibacterial activity against Clostridium difficile ATCC 700057 up to 5000 ug/ml by broth microdilution method. The format is functional, organism-based.
The test system of experiment [3] is Clostridioides difficile. Briefly: Antibacterial activity against Clostridium difficile ATCC 700057 by broth microdilution method. It counts as functional.
Experiment [4] in a line: Binding affinity to Staphylococcus aureus [5'-32P]guaA riboswitch by polyacrylamide gel electrophoresis method.
Experiment [5] is described as follows: Binding affinity to Bacillus subtilis guaA riboswitch.

As to `O=C(NCCO)Nc1nc2[nH]cnc2c(=O)[nH]1`, in experiment [1], the pKd was 5.57. In addition, the result in the experiment on Clostridioides difficile [2] was inactive.
The matching figures for `Nc1nc(O)c2ncn(Cc3ccccc3)c2n1`: less than 3.00 and “inactive”.
`O=C(Nc1nc2[nH]cnc2c(=O)[nH]1)N1CCCCC1` had a pKd in experiment [1] of 4.53. Further, in the experiment on Clostridioides difficile [2], the outcome was inactive.
Take `Nc1nc(NCc2ccc(F)cc2)c2nc[nH]c2n1`: the pKd in experiment [1] was 4.60. The compound also displayed an MIC against Clostridioides difficile [3] of 313 µg/mL (≈ 1.21 mM).
In experiment [1], `Nc1nc(NCCCO)c2nc[nH]c2n1` had a pKd of 6.20. In the experiment with Clostridioides difficile [2], the result was inactive.
The matching figures for `Cn1cnc2c(O)nc(N)nc21` [9-Methylguanine]: 5.09 and “inactive”.
The like results for `NCCCNc1nc(N)nc2[nH]cnc12` were, in that order, 6.49 and “inactive”.
The matching figures for `Nc1nc2nnccc2c(=O)[nH]1`: less than 3.00 and “inactive”.
In experiment [1], `CCCCNc1nc(N)nc2[nH]cnc12` had a pKd of 4.91. For the same compound, the MIC against Clostridioides difficile [3] worked out at 313 µg/mL (≈ 1.52 mM).
`O=C(Nc1nc2[nH]cnc2c(=O)[nH]1)N1CCOCC1` had a pKd in experiment [1] of 5.74. Besides, the outcome in the experiment on Clostridioides difficile [2] was inactive.
As for `CCCCNc1nc(O)c2[nH]cnc2n1`, the pKd in experiment [1] was 5.40. For the same compound, in the experiment on Clostridioides difficile [3], the minimum inhibitory concentration (MIC) was determined as 625 µg/mL (≈ 3.02 mM).
In experiment [1], `Nc1nc(NCc2ccccc2)c2[nH]cnc2n1` showed a pKd of 6.03. In addition, the result in the experiment with Clostridioides difficile [2] was inactive.
In the case of `CN(C)c1nc(N)nc2[nH]cnc12`, in experiment [1], the pKd was 4.32. In the experiment with Clostridioides difficile [2], the outcome was inactive.
As for `CN(C)C(=O)Nc1nc2[nH]cnc2c(=O)[nH]1`, the pKd in experiment [1] was 4.79. Further, 1250 µg/mL (≈ 5.63 mM) was the least that counted as inhibitory against Clostridioides difficile [3] (MIC).
On to `COc1ccc(CNc2nc(N)nc3[nH]cnc23)cc1`, for which the pKd in experiment [1] is 4.15. In the experiment on Clostridioides difficile [3], this compound had an MIC of 313 µg/mL (≈ 1.16 mM).
The like results for `CCCNc1nc(N)nc2[nH]cnc12` were, in that order, 4.17 and 625 µg/mL (≈ 3.25 mM).
The matching figures for `Nc1nc2ncsc2c(=O)[nH]1`: less than 3.00 and 78 µg/mL (≈ 0.464 mM).
The compound `Nc1nc2scnc2c(=O)[nH]1` had a pKd in experiment [1] of 5.13. Further, the outcome in the experiment on Clostridioides difficile [2] was inactive.
Compound `Nc1nc(N)c(N)c(=O)[nH]1` showed a pKd in experiment [4] of 7.00.
The compound `NC(=O)Nc1nc2[nH]cnc2c(=O)[nH]1` had a pKd in experiment [1] of 4.68. For the same compound, the outcome with Clostridioides difficile [2] was inactive.
`Nc1nc2[nH]cnc2c(=O)[nH]1` [GUANINE]: the pKd in experiment [1] was 8.70; in experiment [5], 8.30.
With `CN(C)CCNC(=O)Nc1nc2[nH]cnc2c(=O)[nH]1`, in experiment [1], the pKd was 5.69. Further, the result in the experiment with Clostridioides difficile [2] was inactive.
For `O=c1[nH]c(NCCCO)nc2[nH]cnc12`, the negative logarithm of the Kd (pKd) in experiment [1] was 5.01. In addition, the outcome in the experiment on Clostridioides difficile [2] was inactive.
`NCCNc1nc(N)nc2[nH]cnc12`: in experiment [1], the pKd was less than 3.00. The outcome in the experiment with Clostridioides difficile [2] was inactive.
Consider `O=c1[nH]c(NC2CCCCC2)nc2[nH]cnc12`, for which the pKd in experiment [1] is 5.19. Further, the MIC against Clostridioides difficile [3] is 78 µg/mL (≈ 0.334 mM).
Consider `O=C(NCCN1CCOCC1)Nc1nc2[nH]cnc2c(=O)[nH]1`, for which the pKd in experiment [1] was 4.56. The compound further showed an MIC in the experiment with Clostridioides difficile [3] of 1250 µg/mL (≈ 4.07 mM).
The like results for `Nc1nc2snnc2c(=O)[nH]1` were, in that order, less than 3.00 and 156 µg/mL (≈ 0.922 mM).
`Nc1nc(NC2CCC2)c2nc[nH]c2n1`: the pKd in experiment [1] was less than 3.00. In addition, the lowest concentration to inhibit growth against Clostridioides difficile [3] (MIC) was 1250 µg/mL (≈ 6.12 mM).
For `O=c1[nH]c(NCCc2c[nH]cn2)nc2[nH]cnc12`, the negative-log Kd (pKd) in experiment [1] is 3.52. In the experiment with Clostridioides difficile [3], this compound came in with an MIC of 1250 µg/mL (≈ 5.1 mM).
`COCCCNc1nc2[nH]cnc2c(=O)[nH]1`: the pKd in experiment [1] was 5.66. Besides, the outcome in the experiment with Clostridioides difficile [2] was inactive.
`Nc1nc(NCc2cccnc2)c2nc[nH]c2n1` gave a pKd in experiment [1] of less than 3.00. The compound also returned an MIC in the experiment with Clostridioides difficile [3] of 625 µg/mL (≈ 2.59 mM).
As to `CC(=O)Nc1nc(=O)c2[nH]cnc2[nH]1`, the pKd in experiment [1] was 5.98. Moreover, in the experiment with Clostridioides difficile [2], the outcome was inactive.
In experiment [1], `O=c1[nH]c(NC2CCC2)nc2[nH]cnc12` showed a pKd of 5.62. The compound also came in with an MIC against Clostridioides difficile [3] of 1250 µg/mL (≈ 6.09 mM).
As to `CNC(=O)Nc1nc2[nH]cnc2c(=O)[nH]1`, the pKd in experiment [1] was less than 3.00. For the same compound, the outcome in the experiment with Clostridioides difficile [2] was inactive.
`O=c1[nH]c(NCCc2ccc(O)cc2)nc2[nH]cnc12` showed a pKd in experiment [1] of less than 3.00. For the same compound, in the experiment on Clostridioides difficile [3], the MIC amounted to 1250 µg/mL (≈ 4.61 mM).
Turning to `O=C(O)CCCC(=O)Nc1nc2[nH]cnc2c(=O)[nH]1`, in experiment [1], the pKd was 6.35. Besides, in the experiment with Clostridioides difficile [2], the result was inactive.
The matching figures for `Nc1nc2nsnc2c(=O)[nH]1`: less than 3.00 and “inactive”.
Turning to `Nc1nc(NC2CC2)c2nc[nH]c2n1`, in experiment [1], the pKd is 4.60. The compound further showed an MIC against Clostridioides difficile [3] of 1250 µg/mL (≈ 6.57 mM).
In experiment [1], `O=c1[nH]c(NCc2ccccn2)nc2[nH]cnc12` gave a pKd of 4.61. Further, in the experiment with Clostridioides difficile [2], the result was inactive.
In turn, `CNc1nc2[nH]cnc2c(=O)[nH]1` had a pKd in experiment [1] of less than 3.00. The outcome in the experiment on Clostridioides difficile [2] was inactive.
`CCC(=O)Nc1nc2[nH]cnc2c(=O)[nH]1`: the pKd in experiment [1] was 6.25. Further, the result in the experiment on Clostridioides difficile [2] was inactive.
In experiment [1], `Nc1nc(NCC2CC2)c2nc[nH]c2n1` showed a pKd of 4.16. This compound yielded a minimal inhibitory concentration (MIC) against Clostridioides difficile [3] of 312 µg/mL (≈ 1.53 mM).

(Values after ChEMBL document CHEMBL4138233, “Purine analogs targeting the guanine riboswitch as potential antibiotics against Clostridioides difficile” (Eur J Med Chem, 2018).)
